Publication PMC8429728, “TNK1 is a ubiquitin-binding and 14-3-3-regulated kinase that can be targeted to block tumor growth” (Nature Communications, 2021)
Read-outs that look alike come from different tables or passages of the source.

Experiments:
Test in all cases: biochemical
Set-up in all cases: Reaction Biology 371-kinase panel at Km ATP, per cent enzyme activity relative to DMSO, single dose in duplicate
[1] = target: SIK1 (Homo sapiens, UniProt P57059); conditions: duplicate measurements, Km ATP
Description: (§1) To assess kinase selectivity, we screened TP-5801 (300 nM) against a panel of 371 kinases in vitro. […] In addition to TNK1, only 7 other kinases were inhibited by more than 90% (Supplementary Fig. 8 and Supplementary Data 2). […] The resulting % Enzyme activity (relative to DMSO controls) were plotted in GraphPad and IC50 values were determined by sigmoidal dose-response (variable slope) curve fits, with a bottom constraint of 0.

[2] = target: NEK7 (Homo sapiens, UniProt Q8TDX7); conditions: duplicate measurements, Km ATP
Description: as §1

[3] = target: CAMK2g (Homo sapiens, UniProt Q13555); conditions: duplicate measurements, Km ATP
Description: as §1

[4] = target: PKG2/PRKG2 (Homo sapiens, UniProt Q13237); conditions: duplicate measurements, Km ATP; read-out: % Enzyme Activity (relative to DMSO controls) / TP-0005801 (0.3µM) / Data 1
Description: as §1

[5] = target: TAOK1 (Homo sapiens, UniProt Q7L7X3); conditions: duplicate measurements, Km ATP
Description: as §1

[6] = target: SYK (Homo sapiens, UniProt P43405); conditions: duplicate measurements, Km ATP
Description: as §1

[7] = target: T1, PKAcb (Homo sapiens, UniProt P22694); conditions: duplicate measurements, Km ATP
T1 construct: gene PRKACB
Description: as §1

[8] = target: DRAK1/STK17A (Homo sapiens, UniProt Q9UEE5); conditions: duplicate measurements, Km ATP
Description: as §1

[9] = target: MLCK2/MYLK2 (Homo sapiens, UniProt Q9H1R3); conditions: duplicate measurements, Km ATP
Description: as §1

[10] = target: LATS1 (Homo sapiens, UniProt O95835); conditions: duplicate measurements, Km ATP
Description: as §1

[11] = target: KSR2 (Homo sapiens, UniProt Q6VAB6); conditions: duplicate measurements, Km ATP
Description: as §1

[12] = target: PLK3 (Homo sapiens, UniProt Q9H4B4); conditions: duplicate measurements, Km ATP
Description: as §1

[13] = target: HGK/MAP4K4 (Homo sapiens, UniProt O95819); conditions: duplicate measurements, Km ATP
Description: as §1

[14] = target: T2, JNK2 (Homo sapiens, UniProt P45984); conditions: duplicate measurements, Km ATP
T2 construct: gene MAPK9
Description: as §1

[15] = target: EPHA4 (Homo sapiens, UniProt P54764); conditions: duplicate measurements, Km ATP
Description: as §1

[16] = target: CSK (Homo sapiens, UniProt P41240); conditions: duplicate measurements, Km ATP
Description: as §1

[17] = target: WNK3 (Homo sapiens, UniProt Q9BYP7); conditions: duplicate measurements, Km ATP
Description: as §1

[18] = target: YSK4/MAP3K19 (Homo sapiens, UniProt Q56UN5); conditions: duplicate measurements, Km ATP
Description: as §1

[19] = target: T3, LYN B (Homo sapiens, UniProt P07948); conditions: duplicate measurements, Km ATP
T3 construct: isoform B
Description: as §1

[20] = target: FGR (Homo sapiens, UniProt P09769); conditions: duplicate measurements, Km ATP
Description: as §1

[21] = read-out: % Enzyme Activity (relative to DMSO controls) / TP-0005801 (0.3µM) / Data 1
[22] = read-out: % Enzyme Activity (relative to DMSO controls) / TP-0005801 (0.3µM) / Data 2

Chain of HGK/MAP4K4 (O95819 whole entry): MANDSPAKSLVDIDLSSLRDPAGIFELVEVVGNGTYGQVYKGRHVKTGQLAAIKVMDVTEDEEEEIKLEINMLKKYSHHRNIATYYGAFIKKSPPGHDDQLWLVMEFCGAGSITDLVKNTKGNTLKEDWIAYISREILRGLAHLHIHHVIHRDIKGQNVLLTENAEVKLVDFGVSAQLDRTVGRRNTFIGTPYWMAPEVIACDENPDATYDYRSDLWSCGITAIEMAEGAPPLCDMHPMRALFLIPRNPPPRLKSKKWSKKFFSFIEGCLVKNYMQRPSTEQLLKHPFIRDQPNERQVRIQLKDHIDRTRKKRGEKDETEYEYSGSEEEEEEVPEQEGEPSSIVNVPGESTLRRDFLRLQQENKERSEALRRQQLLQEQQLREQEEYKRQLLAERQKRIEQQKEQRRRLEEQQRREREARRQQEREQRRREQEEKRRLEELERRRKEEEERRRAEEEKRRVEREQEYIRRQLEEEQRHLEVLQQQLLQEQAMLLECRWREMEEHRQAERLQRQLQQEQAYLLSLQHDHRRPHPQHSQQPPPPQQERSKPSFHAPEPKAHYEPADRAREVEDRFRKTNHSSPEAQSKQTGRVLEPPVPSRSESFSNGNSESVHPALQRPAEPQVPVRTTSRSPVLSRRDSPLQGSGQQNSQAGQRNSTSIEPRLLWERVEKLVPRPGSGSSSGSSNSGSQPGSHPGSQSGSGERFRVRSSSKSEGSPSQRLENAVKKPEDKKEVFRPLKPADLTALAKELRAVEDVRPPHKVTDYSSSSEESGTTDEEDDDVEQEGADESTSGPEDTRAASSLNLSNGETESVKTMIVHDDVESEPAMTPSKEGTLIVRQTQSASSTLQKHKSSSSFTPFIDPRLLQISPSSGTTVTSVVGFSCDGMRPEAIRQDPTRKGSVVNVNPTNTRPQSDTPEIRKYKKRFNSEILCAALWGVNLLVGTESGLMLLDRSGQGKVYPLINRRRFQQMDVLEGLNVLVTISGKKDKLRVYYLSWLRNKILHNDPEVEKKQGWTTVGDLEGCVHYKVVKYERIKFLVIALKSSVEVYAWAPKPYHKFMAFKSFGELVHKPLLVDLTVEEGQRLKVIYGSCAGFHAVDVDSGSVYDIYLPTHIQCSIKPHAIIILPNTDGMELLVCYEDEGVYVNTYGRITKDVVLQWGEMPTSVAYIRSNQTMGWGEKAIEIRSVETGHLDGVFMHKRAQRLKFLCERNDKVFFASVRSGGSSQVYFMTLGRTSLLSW
Chain of FGR (P09769 whole entry): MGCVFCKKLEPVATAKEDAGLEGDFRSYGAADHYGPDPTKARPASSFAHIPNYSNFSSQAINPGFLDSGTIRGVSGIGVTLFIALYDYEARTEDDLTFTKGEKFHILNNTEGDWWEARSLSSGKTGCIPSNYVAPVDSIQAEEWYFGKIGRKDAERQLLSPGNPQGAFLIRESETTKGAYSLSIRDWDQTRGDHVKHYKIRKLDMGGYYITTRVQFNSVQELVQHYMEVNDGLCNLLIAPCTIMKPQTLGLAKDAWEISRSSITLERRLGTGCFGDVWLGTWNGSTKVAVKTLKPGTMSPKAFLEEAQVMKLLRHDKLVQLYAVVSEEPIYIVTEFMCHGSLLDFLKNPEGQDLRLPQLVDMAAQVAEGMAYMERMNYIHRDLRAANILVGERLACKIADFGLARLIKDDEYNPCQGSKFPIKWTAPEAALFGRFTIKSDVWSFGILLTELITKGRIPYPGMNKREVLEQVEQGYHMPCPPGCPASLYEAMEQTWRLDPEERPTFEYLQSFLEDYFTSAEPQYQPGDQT
Chain of EPHA4 (P54764 whole entry): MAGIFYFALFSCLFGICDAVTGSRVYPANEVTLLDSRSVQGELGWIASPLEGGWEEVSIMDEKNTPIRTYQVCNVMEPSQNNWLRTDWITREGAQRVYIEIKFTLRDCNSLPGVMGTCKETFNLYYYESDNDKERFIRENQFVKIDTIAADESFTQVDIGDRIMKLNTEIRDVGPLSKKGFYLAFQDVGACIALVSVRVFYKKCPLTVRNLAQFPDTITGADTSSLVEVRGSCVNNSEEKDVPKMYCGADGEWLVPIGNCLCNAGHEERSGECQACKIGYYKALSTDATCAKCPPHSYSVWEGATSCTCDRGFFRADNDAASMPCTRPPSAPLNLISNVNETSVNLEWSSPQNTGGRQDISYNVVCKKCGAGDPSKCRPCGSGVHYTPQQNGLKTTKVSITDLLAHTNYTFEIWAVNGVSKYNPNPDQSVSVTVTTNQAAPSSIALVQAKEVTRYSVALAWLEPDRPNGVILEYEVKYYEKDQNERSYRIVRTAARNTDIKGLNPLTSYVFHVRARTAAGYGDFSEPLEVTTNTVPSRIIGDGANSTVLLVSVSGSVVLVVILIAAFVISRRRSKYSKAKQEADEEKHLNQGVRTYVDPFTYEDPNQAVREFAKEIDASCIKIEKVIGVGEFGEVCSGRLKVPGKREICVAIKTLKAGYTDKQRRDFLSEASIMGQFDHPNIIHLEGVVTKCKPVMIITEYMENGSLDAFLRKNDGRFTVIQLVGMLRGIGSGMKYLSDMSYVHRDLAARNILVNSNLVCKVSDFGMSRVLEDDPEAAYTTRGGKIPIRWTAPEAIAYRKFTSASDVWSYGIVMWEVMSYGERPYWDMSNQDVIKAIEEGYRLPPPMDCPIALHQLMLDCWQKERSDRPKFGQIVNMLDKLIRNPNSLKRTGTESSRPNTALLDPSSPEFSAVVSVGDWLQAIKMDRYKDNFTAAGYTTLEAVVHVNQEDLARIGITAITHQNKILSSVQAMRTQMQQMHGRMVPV
Chain of PLK3 (Q9H4B4 whole entry): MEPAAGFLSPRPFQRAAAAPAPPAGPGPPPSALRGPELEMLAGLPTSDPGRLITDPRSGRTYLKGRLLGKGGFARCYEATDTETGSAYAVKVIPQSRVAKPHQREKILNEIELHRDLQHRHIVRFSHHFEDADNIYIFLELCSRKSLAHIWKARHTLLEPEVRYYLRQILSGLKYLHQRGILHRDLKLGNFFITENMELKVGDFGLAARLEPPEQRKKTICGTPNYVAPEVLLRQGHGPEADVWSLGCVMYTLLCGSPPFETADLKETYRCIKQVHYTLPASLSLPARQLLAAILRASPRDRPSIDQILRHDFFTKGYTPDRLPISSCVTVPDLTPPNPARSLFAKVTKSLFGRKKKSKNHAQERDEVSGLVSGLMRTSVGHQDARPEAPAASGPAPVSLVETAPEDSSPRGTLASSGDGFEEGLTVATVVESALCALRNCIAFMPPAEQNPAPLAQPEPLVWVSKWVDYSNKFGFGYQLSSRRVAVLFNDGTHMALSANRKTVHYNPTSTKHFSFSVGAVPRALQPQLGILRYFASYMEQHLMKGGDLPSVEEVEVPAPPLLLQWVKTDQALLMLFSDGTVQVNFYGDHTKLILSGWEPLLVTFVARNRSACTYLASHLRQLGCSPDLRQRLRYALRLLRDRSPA
Chain of SIK1 (P57059 whole entry): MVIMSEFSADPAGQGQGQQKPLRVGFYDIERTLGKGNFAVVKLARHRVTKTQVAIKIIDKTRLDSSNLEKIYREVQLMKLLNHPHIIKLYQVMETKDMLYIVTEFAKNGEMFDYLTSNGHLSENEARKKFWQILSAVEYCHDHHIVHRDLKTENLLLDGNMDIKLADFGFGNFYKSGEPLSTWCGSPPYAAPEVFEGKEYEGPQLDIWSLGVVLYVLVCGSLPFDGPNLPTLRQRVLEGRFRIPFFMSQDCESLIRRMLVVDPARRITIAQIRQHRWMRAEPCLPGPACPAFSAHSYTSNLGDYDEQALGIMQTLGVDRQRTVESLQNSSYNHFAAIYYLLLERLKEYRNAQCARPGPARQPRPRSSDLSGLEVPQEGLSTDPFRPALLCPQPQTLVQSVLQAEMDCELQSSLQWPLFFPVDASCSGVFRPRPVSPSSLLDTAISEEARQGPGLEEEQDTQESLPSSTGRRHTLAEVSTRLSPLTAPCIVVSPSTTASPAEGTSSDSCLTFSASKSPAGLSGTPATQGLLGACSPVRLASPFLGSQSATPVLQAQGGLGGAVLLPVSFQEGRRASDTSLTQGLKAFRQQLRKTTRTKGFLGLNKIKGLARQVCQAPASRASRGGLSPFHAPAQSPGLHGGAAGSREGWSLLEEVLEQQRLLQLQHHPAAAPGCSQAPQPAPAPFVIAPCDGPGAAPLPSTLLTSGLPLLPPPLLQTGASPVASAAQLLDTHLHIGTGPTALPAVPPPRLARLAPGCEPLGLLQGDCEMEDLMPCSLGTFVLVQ
Chain of CSK (P41240 whole entry): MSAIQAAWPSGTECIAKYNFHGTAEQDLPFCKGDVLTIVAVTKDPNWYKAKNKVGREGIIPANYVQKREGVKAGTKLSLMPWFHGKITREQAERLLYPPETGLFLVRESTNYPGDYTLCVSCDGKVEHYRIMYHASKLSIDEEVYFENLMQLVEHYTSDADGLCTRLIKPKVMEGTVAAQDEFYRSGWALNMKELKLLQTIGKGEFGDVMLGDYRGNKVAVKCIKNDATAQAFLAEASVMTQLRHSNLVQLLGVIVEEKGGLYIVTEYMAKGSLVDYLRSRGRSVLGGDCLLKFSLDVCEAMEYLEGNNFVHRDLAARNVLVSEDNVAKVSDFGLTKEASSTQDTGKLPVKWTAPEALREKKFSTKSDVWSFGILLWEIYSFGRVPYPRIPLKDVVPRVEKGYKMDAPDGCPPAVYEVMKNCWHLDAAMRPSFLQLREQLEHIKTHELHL
Chain of NEK7 (Q8TDX7 whole entry): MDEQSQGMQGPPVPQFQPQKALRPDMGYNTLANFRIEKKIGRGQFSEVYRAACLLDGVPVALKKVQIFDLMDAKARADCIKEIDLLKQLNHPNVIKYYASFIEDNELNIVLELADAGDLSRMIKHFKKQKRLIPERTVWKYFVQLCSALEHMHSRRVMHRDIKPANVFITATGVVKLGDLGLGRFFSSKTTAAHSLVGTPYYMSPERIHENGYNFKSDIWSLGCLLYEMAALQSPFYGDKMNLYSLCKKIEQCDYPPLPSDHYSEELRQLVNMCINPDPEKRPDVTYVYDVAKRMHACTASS

In the case of `COc1cc(N2CCN(C)CC2)c(C)cc1Nc1ncc(Br)c(Nc2cccnc2N(C)C)n1` [TP-5801], the remaining activity at 0.3 µM [1, 21] is reported as 94.2%, the remaining activity at 0.3 µM [1, 22] is reported as 92.8% and the remaining activity at 0.3 µM [2, 21] is reported as 90.2%. It also gave a remaining activity at 0.3 µM [2, 22] of 89.5%, a remaining activity at 0.3 µM [3, 21] of 157% and a remaining activity at 0.3 µM [3, 22] of 153%. The remaining activity at 0.3 µM [4] was 111%, the remaining activity at 0.3 µM [5, 21] was 73.3% and the remaining activity at 0.3 µM [5, 22] was 68.3%. The remaining activity at 0.3 µM [6, 21] was 77.6%, the remaining activity at 0.3 µM [6, 22] was 77.5% and the remaining activity at 0.3 µM [7, 21] was 98%. It also gave a remaining activity at 0.3 µM [7, 22] of 96.7%, a remaining activity at 0.3 µM [8, 21] of 92% and a remaining activity at 0.3 µM [8, 22] of 88.6%. It also gave a remaining activity at 0.3 µM [9, 21] of 104%, a remaining activity at 0.3 µM [9, 22] of 100% and a remaining activity at 0.3 µM [10, 21] of 103%. The remaining activity at 0.3 µM [10, 22] was 102%, the remaining activity at 0.3 µM [11, 21] was 96.9% and the remaining activity at 0.3 µM [11, 22] was 94.2%. It also gave a remaining activity at 0.3 µM [12, 21] of 109%, a remaining activity at 0.3 µM [12, 22] of 102% and a remaining activity at 0.3 µM [13, 21] of 103%. For the same compound, the remaining activity at 0.3 µM [13, 22] was 102%, the remaining activity at 0.3 µM [14, 21] was 97% and the remaining activity at 0.3 µM [14, 22] was 96.3%. For the same compound, the remaining activity at 0.3 µM [15, 21] was 98.9%, the remaining activity at 0.3 µM [15, 22] was 98.5% and the remaining activity at 0.3 µM [16, 21] was 92.6%. The remaining activity at 0.3 µM [16, 22] was 89.8%, the remaining activity at 0.3 µM [17, 21] was 87.5% and the remaining activity at 0.3 µM [17, 22] was 86.5%. For the same compound, the remaining activity at 0.3 µM [18, 21] was 93.8%, the remaining activity at 0.3 µM [18, 22] was 92.8% and the remaining activity at 0.3 µM [19, 21] was 99.5%. It also gave a remaining activity at 0.3 µM [19, 22] of 99.4%, a remaining activity at 0.3 µM [20, 21] of 109% and a remaining activity at 0.3 µM [20, 22] of 105%.
